Test system: aromatic aminoacid-decarboxylase
Experiment: Blockade of aromatic aminoacid-decarboxylase activity
Type: biochemical
Source text: This blockade of the aromatic aminoacid-decarboxylase is irreversible and thus is of special interest since it is maintained as long as the enzyme molecules are in the effective range of the benzophenanthridine alkaloids. Sanguinarine and chelerythrine, representative of the benzophenanthridine alkaloids, have an aromatic structure which is similar to that of the aromatic amino acids. The enzyme “aromatic aminoacid-decarboxylase” confuses the ultimate structure of the benzophenanthridine alkaloid with the ring structure of the aromatic amino acid and fits it rather than the amino acids at its active center.

COc1ccc2c(c[n+](C)c3c4cc5c(cc4ccc23)OCO5)c1OC [chelerythrine]
block the activity of the aromatic aminoacid-decarboxylase: 92% | reversibility of blockade of the aromatic aminoacid-decarboxylase: irreversible

— patent US20030190344A1, “Animal feed or feed additive as performance enhancer or appetite enhancer for live stock” (priority 2000, published 2003)
